Laboratory results reported in patent publication US11890288B2, “Sulfonamide or sulfinamide compound having effect of inducing BRD4 protein degradation and pharmaceutical use thereof” (MITSUBISHI TANABE PHARMA CORPORATION, priority 2020, dated 2024).

How the values were obtained:
[1] = test system: human prostate cancer LNCaP cells; assay: Cytotoxic action on LNCaP cells (WST-8, 96 hr); assay type: cell-based; conditions: 96 hr culture
Procedure, shortened: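 Cells in 10% FBS/RPMI1640 plated overnight at 37° C, 5% CO2, then exposed to compound (DMSO stock diluted in medium) for 96 hr. Viable cells measured by WST-8. IC50 = concentration giving 50% survival versus untreated, interpolated linearly between the two bracketing points.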

BRD4 protein = BRD4 protein (Homo sapiens (Human), UniProt O60885); assay: BRD4 protein degradation inducing action in LNCaP cells (immunofluorescence, 6 hr); assay type: cell-based; conditions: anti-BRD4 fluorescence intensity
Procedure, shortened: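 Read-out is BRD4 immunofluorescence intensity (560/572 nm) after 6 hr compound treatment of LNCaP cells in 10% FBS/RPMI1640, with fixation, permeabilization and anti-BRD4 staining. Linear interpolation between the two concentrations flanking 50% of untreated intensity gives DC50.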

Structure (SMILES) | IC50 [1] [pM] | DC50 (BRD4 protein) [pM]
COC(=O)C[C@@H]1N=C(c2ccc(-c3cnc(C(=O)NCc4ccc(S(=O)(=O)Nc5ccc(C)c6c(C#N)c[nH]c56)cc4)c(F)c3)cc2)c2c(sc(C)c2C)-n2c(C)nnc21 [Example 77, methyl [(6S)-4-(4-{6-[({4-[(3-cyano-4-methyl-1H-indol-7-yl)sulfamoyl]phenyl}methyl)carbamoyl]-5-fluoropyridin-3-yl}phenyl)-2,3,9-trimethyl-6H-thieno[3,2-f][1,2,4]triazolo[4,3-a][1,4]diazepin-6-yl]acetate] | 160 | 48
COC(=O)C[C@@H]1N=C(c2ccc(-c3cc(F)c(C(=O)NCc4ccc(S(=O)(=O)Nc5ccc(C)c6c(C#N)c[nH]c56)cc4)cc3F)cc2)c2c(sc(C)c2C)-n2c(C)nnc21 [Example 82, methyl [(6S)-4-{4′-[({4-[(3-cyano-4-methyl-1H-indol-7-yl)sulfamoyl]phenyl}methyl)carbamoyl]-2′,5′-difluoro[1,1′-biphenyl]-4-yl}-2,3,9-trimethyl-6H-thieno[3,2-f][1,2,4]triazolo[4,3-a][1,4]diazepin-6-yl]acetate] | 270 | 250
COC(=O)C[C@@H]1N=C(c2ccc(-c3cc(C)c(C(=O)NCc4ccc(S(=O)(=O)Nc5ccc(C)c6c(C#N)c[nH]c56)cc4)cc3F)cc2)c2c(sc(C)c2C)-n2c(C)nnc21 [Example 83, methyl [(6S)-4-{4′-[({4-[(3-cyano-4-methyl-1H-indol-7-yl)sulfamoyl]phenyl}methyl)carbamoyl]-2′-fluoro-5′-methyl[1,1′-biphenyl]-4-yl}-2,3,9-trimethyl-6H-thieno[3,2-f][1,2,4]triazolo[4,3-a][1,4]diazepin-6-yl]acetate] | 330 | 250
COC(=O)C[C@@H]1N=C(c2ccc(-c3ccc(C(=O)N[C@H](C)c4ccc(S(=O)(=O)Nc5ccc(C)c6c(C#N)c[nH]c56)cc4)cc3Cl)cc2)c2c(sc(C)c2C)-n2c(C)nnc21 [Example 84, methyl [(6S)-4-(2′-chloro-4′-{[(1R)-1-{4-[(3-cyano-4-methyl-1H-indol-7-yl)sulfamoyl]phenyl}ethyl]carbamoyl}[1,1′-biphenyl]-4-yl)-2,3,9-trimethyl-6H-thieno[3,2-f][1,2,4]triazolo[4,3-a][1,4]diazepin-6-yl]acetate] | 580 | 230
COC(=O)C[C@@H]1N=C(c2ccc(-c3ccc(C(=O)N[C@H](C)c4ccc(S(=O)(=O)Nc5ccc(C)c6c(C#N)c[nH]c56)cc4)cc3F)cc2)c2c(sc(C)c2C)-n2c(C)nnc21 [Example 85, methyl [(6S)-4-(4′-{[(1R)-1-{4-[(3-cyano-4-methyl-1H-indol-7-yl)sulfamoyl]phenyl}ethyl]carbamoyl}-2′-fluoro[1,1′-biphenyl]-4-yl)-2,3,9-trimethyl-6H-thieno[3,2-f][1,2,4]triazolo[4,3-a][1,4]diazepin-6-yl]acetate] | 260 | 74
COC(=O)C[C@@H]1N=C(c2ccc(-c3ccc(C(=O)N[C@H](C)c4ccc(S(=O)(=O)Nc5ccc(C)c6c(C#N)c[nH]c56)cc4)c(C)c3)cc2)c2c(sc(C)c2C)-n2c(C)nnc21 [Example 86, methyl [(6S)-4-(4′-{[(1R)-1-{4-[(3-cyano-4-methyl-1H-indol-7-yl)sulfamoyl]phenyl}ethyl]carbamoyl}-3′-methyl[1,1′-biphenyl]-4-yl)-2,3,9-trimethyl-6H-thieno[3,2-f][1,2,4]triazolo[4,3-a][1,4]diazepin-6-yl]acetate] | 350 | 59
COC(=O)C[C@@H]1N=C(c2ccc(-c3ccc(C(=O)N[C@H](C)c4ccc(S(=O)(=O)Nc5ccc(C)c6c(C#N)c[nH]c56)cc4)cc3C)cc2)c2c(sc(C)c2C)-n2c(C)nnc21 [Example 88, methyl [(6S)-4-(4′-{[(1R)-1-{4-[(3-cyano-4-methyl-1H-indol-7-yl)sulfamoyl]phenyl}ethyl]carbamoyl}-2′-methyl[1,1′-biphenyl]-4-yl)-2,3,9-trimethyl-6H-thieno[3,2-f][1,2,4]triazolo[4,3-a][1,4]diazepin-6-yl]acetate] | 170 | 370
COC(=O)C[C@@H]1N=C(c2ccc(-c3ccc(C(=O)NCCc4ccc(S(=O)(=O)Nc5ccc(C)c6c(C#N)c[nH]c56)cc4)cc3C)cc2)c2c(sc(C)c2C)-n2c(C)nnc21 [Example 89, methyl [(6S)-4-{4′-[(2-{4-[(3-cyano-4-methyl-1H-indol-7-yl)sulfamoyl]phenyl}ethyl)carbamoyl]-2′-methyl [1,1′-biphenyl]-4-yl}-2,3,9-trimethyl-6H-thieno[3,2-f][1,2,4]triazolo[4,3-a][1,4]diazepin-6-yl]acetate] | 330 | 800
COC(=O)C[C@@H]1N=C(c2ccc(-c3ccc(C(=O)NCCc4ccc(S(=O)(=O)Nc5ccc(C)c6c(C#N)c[nH]c56)cc4)nc3)cc2)c2c(sc(C)c2C)-n2c(C)nnc21 [Example 90, methyl [(6S)-4-(4-{6-[(2-{4-[(3-cyano-4-methyl-1H-indol-7-yl)sulfamoyl]phenyl}ethyl)carbamoyl]pyridin-3-yl}phenyl)-2,3,9-trimethyl-6H-thieno[3,2-f][1,2,4]triazolo[4,3-a][1,4]diazepin-6-yl]acetate] | 190 | 91
COC(=O)C[C@@H]1N=C(c2ccc(-c3cnc(C(=O)NCc4ccc(S(=O)(=O)Nc5ccc(C)c6c(C#N)c[nH]c56)cc4)c(C)c3)cc2)c2c(sc(C)c2C)-n2c(C)nnc21 [Example 91, methyl [(6S)-4-(4-{6-[({4-[(3-cyano-4-methyl-1H-indol-7-yl)sulfamoyl]phenyl}methyl)carbamoyl]-5-methylpyridin-3-yl}phenyl)-2,3,9-trimethyl-6H-thieno[3,2-f][1,2,4]triazolo[4,3-a][1,4]diazepin-6-yl]acetate] | 260 | 29
COC(=O)C[C@@H]1N=C(c2ccc(-c3ccc(C(=O)N[C@H](C)c4ccc(S(=O)(=O)Nc5ccc(C)c6c(C#N)c[nH]c56)cc4)nc3)cc2)c2c(sc(C)c2C)-n2c(C)nnc21 [Example 92, methyl {(6S)-4-[4-(6-{[(1R)-1-{4-[(3-cyano-4-methyl-1H-indol-7-yl)sulfamoyl]phenyl}ethyl]carbamoyl}pyridin-3-yl)phenyl]-2,3,9-trimethyl-6H-thieno[3,2-f][1,2,4]triazolo[4,3-a][1,4]diazepin-6-yl}acetate] | 87 | 41
COC(=O)C[C@@H]1N=C(c2ccc(-c3ccc(C(=O)NCc4ccc(S(=O)(=O)Nc5ccc(C)c6c(C#N)c[nH]c56)cc4C)cc3)cc2)c2c(sc(C)c2C)-n2c(C)nnc21 [Example 94, methyl [(6S)-4-{4′-[({4-[(3-cyano-4-methyl-1H-indol-7-yl)sulfamoyl]-2-methylphenyl}methyl)carbamoyl][1,1′-biphenyl]-4-yl}-2,3,9-trimethyl-6H-thieno[3,2-f][1,2,4]triazolo[4,3-a][1,4]diazepin-6-yl]acetate] | 420 | 130
COC(=O)C[C@@H]1N=C(c2ccc(-c3cc(F)c(C(=O)N[C@H](C)c4ccc(S(=O)(=O)Nc5ccc(C)c6c(C#N)c[nH]c56)cc4)cc3F)cc2)c2c(sc(C)c2C)-n2c(C)nnc21 [Example 97, methyl [(6S)-4-(4′-{[(1R)-1-{4-[(3-cyano-4-methyl-1H-indol-7-yl)sulfamoyl]phenyl}ethyl]carbamoyl}-2′,5′-difluoro[1,1′-biphenyl]-4-yl)-2,3,9-trimethyl-6H-thieno[3,2-f][1,2,4]triazolo[4,3-a][1,4]diazepin-6-yl]acetate] | 120 | 64
